The source of these data is patent US11312722B2, “Hsp90 inhibitors and uses thereof” (TRUSTEES OF BOSTON UNIVERSITY, priority 2019, dated 2022).

For experiment [1], the system named is C. albicans clinical isolate (CaCi2). The experiment can be described thus: Fungicidal activity: spotting of MIC cultures onto compound-free YPD agar. Format: cell-based. Conditions: C. albicans CaCi2, spotted on YPD agar after 48 h exposure. The procedure:
(§1) Color scale bar: no growth inhibition (green) to complete inhibition (black). Each shaded box represents the mean of technical duplicates. The experiment was repeated as an independent biological replicate to confirm results.
(§2) Each shaded box represents the mean of technical duplicates. Relative viable cell number was monitored by standard dye reduction assay after 3-hr incubation with resazurin at 37° C. FIG. 6B: Following exposure to compounds, aliquots of the culture in each well were spotted onto compound-free YPD agar and plates incubated at 30° C. for an additional 24 hours before imaging to assess viability. The entire experiment consisting of growth in liquid culture followed by spotting onto YPD agar was repeated once.
(§3) Antifungal sensitivity testing. […] Each compound was tested in duplicate in at least two independent experiments. […] Plates were photographed after 24 h of incubation at 30° C.

Experiment [2] addresses C. neoformans Hsp90 NBD (Cryptococcus neoformans, UniProt J9VVA4). Nature of the experiment: biochemical. Format: binding. Conditions: SPR, 25° C., read-out: Biacore KD. The procedure:
SPR assays. For SPR experiments, Hsp90 NBD expression constructs were modified to encode a C-terminal AviTag™ for site-specific on-column biotinylation with a BirA biotin-ligase kit (Avidity LLC; BirA-500). SPR experiments were performed on a Biacore T200 instrument at 25° C. Biotinylated Hsp90 NBD was diluted to 40 μg/mL and immobilized on a streptavidin chip (Sensor Chip SA, GE Healthcare) at a density of 2000-2500 response units (RU) on the biosensor surface. […] Resulting sensorgrams were analyzed with a fit to a 1:1 binding model, using BIA evaluation software.
(In general: SPR reads the build-up and loss of mass on a sensor chip optically.)

Experiment [3] relates to C. albicans clinical isolate (CaCi2). The experiment is classed as cell-based. Conditions: moderately fluconazole-resistant clinical isolate of C. albicans (CaCi2), 8 μg/mL fluconazole. The procedure:
as §1, §2
Yeast strains and culture conditions. Strains used in this study were C. albicans CaCi2 (clinical isolate 2), [58] SC5314, [59] and C. neoformans H99. […] Active cultures were maintained on solid (2% agar) yeast extract peptone (YPD, 1% yeast extract, 2% bactopeptone, 2% glucose) at 4° C. for no more than one month.
as §3

The subject of experiment [4] is C. neoformans (Strain H99). The experiment can be described thus: Antifungal sensitivity testing (MIC), C. neoformans H99. The experiment is classed as cell-based.
The target in experiment [5] is C. albicans Hsp90 NBD (Candida albicans (strain SC5314 / ATCC MYA-2876) (Yeast), UniProt P46598). Format: binding. Conditions: equimolar protein and ligand (10 μM). On the procedure:
Using recombinant proteins, assay-independent nanomolar inhibitory constants (Ki) were defined for these compounds. Binding of the compounds to their relevant NBD by thermal shift denaturation assays was also confirmed. Thermal shift assays were performed under saturating ligand conditions, i.e. equimolar concentrations (10 μM) of protein and ligand. As a result, they can provide only qualitative evidence of target binding, but not a quantitative measurement of ligand affinity. […] […]. C. neoformans or C. albicans Hsp90 NBD was combined with equimolar concentrations of the indicated bioactive inhibitors (10 μM) or DMSO control, in technical triplicates. The protein was heated from 25 to 98.6° C. at 0.2° C./5 s in the presence of Sypro Orange dye. All compounds induce an increase in melting temperature relative to the DMSO control, reported as ΔTm.
Protein thermal shift assays. Thermal melting curves were determined using a Protein Thermal Shift Kit (ThermoFisher #4462263), employing a CFX384 Real-Time PCR System (Bio-Rad, C1000 Touch Thermal Cycler). […] Temperature shift, ΔTm, was recorded as the difference between the Tm of the fungal Hsp90 NBD with compound minus Tm of the protein without compound.

Chain of C. albicans Hsp90 NBD (P46598 1-240 limits assumed): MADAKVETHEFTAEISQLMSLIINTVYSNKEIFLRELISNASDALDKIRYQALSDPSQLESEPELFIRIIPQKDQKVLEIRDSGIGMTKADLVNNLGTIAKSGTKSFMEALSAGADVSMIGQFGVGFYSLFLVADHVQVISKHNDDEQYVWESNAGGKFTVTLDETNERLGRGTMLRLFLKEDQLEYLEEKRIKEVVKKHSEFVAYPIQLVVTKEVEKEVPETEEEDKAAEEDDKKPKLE
Chain of C. neoformans Hsp90 NBD (J9VVA4 1-699): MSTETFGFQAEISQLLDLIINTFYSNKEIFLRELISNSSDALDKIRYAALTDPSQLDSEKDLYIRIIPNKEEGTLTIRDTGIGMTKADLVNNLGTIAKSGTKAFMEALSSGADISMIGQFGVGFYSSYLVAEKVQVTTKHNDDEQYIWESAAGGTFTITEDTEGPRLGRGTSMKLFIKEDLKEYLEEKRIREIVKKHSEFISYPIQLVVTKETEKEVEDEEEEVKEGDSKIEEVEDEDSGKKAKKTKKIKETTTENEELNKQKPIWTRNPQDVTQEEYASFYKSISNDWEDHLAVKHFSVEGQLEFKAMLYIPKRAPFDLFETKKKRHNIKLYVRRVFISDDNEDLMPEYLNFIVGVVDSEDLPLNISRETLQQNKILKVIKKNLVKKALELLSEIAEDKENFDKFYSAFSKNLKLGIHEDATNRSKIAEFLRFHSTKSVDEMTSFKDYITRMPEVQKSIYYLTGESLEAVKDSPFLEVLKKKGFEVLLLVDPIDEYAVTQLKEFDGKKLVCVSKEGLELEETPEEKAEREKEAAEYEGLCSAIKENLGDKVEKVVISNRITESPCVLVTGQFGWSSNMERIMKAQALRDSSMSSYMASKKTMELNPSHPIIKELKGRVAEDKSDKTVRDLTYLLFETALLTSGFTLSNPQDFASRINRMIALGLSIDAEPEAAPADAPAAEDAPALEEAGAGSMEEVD

By Kd is commonly meant the free concentration of one partner at which half of the binding sites on the other are occupied at equilibrium, for simple one-to-one binding. The MIC80 is the lowest concentration that inhibits either 80% of growth or 80% of the strains tested, depending on the study. The MIC90 is the lowest concentration that inhibits either 90% of growth or 90% of the strains tested, depending on the study. On to `Cn1nc(-c2ccc(OC(F)(F)F)cc2)cc1Nc1cc(O)cc(O)c1C(=O)N1Cc2ccccc2C1` [Compound 130, 4-(2,3-Dihydro-1H-isoindole-2-carbonyl)-5-((1-methyl-3-(4-(trifluoromethoxy)phenyl)-1H-pyrazol-5-yl)amino)benzene-1,3-diol], for which the “fungicidal activity in combination with fluconazole” value in experiment [1] was “converted the fungistatic activity of fluconazole to fungicidal”. The Kd in experiment [2] was found to be 7 nM. Moreover, in experiment [3], the “MIC in combination with fluconazole” value came to 12.5 µM. Besides, in experiment [4] (Cryptococcus neoformans, read-out: C. neo MIC80), the MIC80 was > 25 µM. For the same compound, the MIC90 in experiment [4] (Cryptococcus neoformans, read-out: C. neo MIC90) is > 25 µM. In experiment [4] (Yes/No call), the “C. neo Active (cells)” value was “No”. The “C. albicans NBD ΔTm” value in experiment [5] is 9 °C.
